The text below walks through data of patent US8568987B2, “Chemotaxis diagnostic” (Glycotope Biotechnology GmbH, priority 2000, dated 2013).

Test [1] relates to neutrophilic granulocytes (LECAM-1 surface expression). In words: Granulocyte chemotaxis test from leukocyte-rich plasma: LECAM-1 surface expression by flow-through cytometry. It counts as cell-based, human. The settings on record: 5×10^−8 M fMLP vs negative control containing PBS; FIG. 3A/3B. How it is done:
(§1) 1 ml of Ficoll (Ficoll separation medium, from Seromed, order No. L6113 (endotoxin-low)) is initially introduced in an Eppendorf tube and 1 ml of fresh (preferably not older than 8 hours) heparinized whole blood (endotoxin-low heparin) is carefully overlaid at room temperature. The mixture is allowed to stand at room temperature until a marked phase separation can be observed. After a spontaneous sedimentation, normally lasting for about 40 minutes at room temperature, the leukocytes and platelets remain above the Ficoll phase while the erythrocytes have sedimented to the bottom. The sinking of the erythrocytes occurs quite suddenly after from approx. 30 to 40 minutes. […]
(§2) 20 μl of LDS (laser dye LDS 751, from Exiton or Styryl 8, from Lambda Physik, Göttingen; for excluding the erythrocytes, 1 mg/ml, prediluted 1:50 in PBS) are added to the solution. […] The measurement is stopped after in each case 1000 or 2000 latex particles have been recorded, such that approx. 5000-15 000 neutrophils have been counted. […] The sheath fluid employed is FACS Flow (from Becton Dickinson, order No. 342003) or another carrier fluid having a low intrinsic fluorescence. […] The calibration and quality control for fluorescence measurements (intensity per cell) are carried out using the Calibrites. […]

The test system of test [2] is neutrophilic granulocytes. In words: Granulocyte chemotaxis test: number of cells migrated through porous membrane, counted against beads by flow-through cytometry. It counts as cell-based, human. The settings on record: 5×10^−8 M fMLP vs negative control containing PBS; FIG. 3B. On the procedure:
as §1, §2

Regarding N-formyl-Met-Leu-Phe [fMLP], the “decrease in the surface expression of the cell adhesion molecule LECAM-1” value in test [1] is reported as “about one order of magnitude”. In test [2], the “number of neutrophilic granulocyte cells which have migrated through the membrane, in relation to constant number of beads” value was “marked increase”.
